Data from publication PMC5786060, “Discovery of new molecular entities able to strongly interfere with Hsp90 C-terminal domain” (Scientific Reports, 2018).
Where two headings read alike, the source gives them in different places.

Assays:
recombinant human Hsp90α = biological target: T1, recombinant human Hsp90α (Homo sapiens, UniProt P07900); assay: SPR binding to immobilized recombinant Hsp90α; conditions: Biacore 3000, immobilized full length Hsp90α, 25 °C, 1:1 Langmuir model, read-out: KD (nM) ± SD
T1 construct: purchased Abcam
Protocol: Recombinant human Hsp90α was purchased from Abcam (Abcam, Cambridge, UK). […] SPR analyses were carried out according to our previously published data[25]–[28],[32],[50]. Surface Plasmon Resonance Spectroscopy (SPR) analyses were performed to determine binding of various molecules to full length Hsp90α using a Biacore 3000 optical biosensor equipped with research-grade CM5 sensor chips (GE Healthcare). Hsp90α was coupled to the surface of a CM5 sensor chip using standard amine-coupling protocols, according to the manufacturer’s instructions.
The protein (100 µg mL^−1 in 10 mM CH3COONa, pH 5.0) was immobilized on individual sensor chip surfaces at a flow rate of 5 µL min^−1 to obtain densities of 8–12 kRU. For the experiments a recombinant Hsp90α surface, a BSA surface and one unmodified reference surface were prepared for simultaneous analyses. […] For each molecule a six-point concentration series were set up, spanning […], and for each sample the complete binding study was performed using triplicate aliquots. Changes in mass, due to the binding response, were recorded as resonance units (RU). To obtain the dissociation constant (KD) (Table 1), these responses were fit to a 1:1 Langmuir binding model by nonlinear regression using the BiaEvaluation software program provided by GE Healthcare. Simple interactions were suitably fitted to a single-site bimolecular interaction model (A + B = AB), yielding a single KD. (Table 1). SPR experiments were performed at 25 °C, using a flow rate of 50 µL min^−1, with 60 s monitoring of association and 300 s monitoring of dissociation.

[1] = test system: U937 (human monocytic cell line from histiocytic lymphoma); assay: Anti-proliferation MTT assay, U937 cells; assay type: cell-based; conditions: for IC50: Homo sapiens
Protocol: (§1) Jurkat and U937 (2 × 10^4 /well) cells were seeded in triplicate in 96 well−plates and incubated for the 24 h or 48 h in the absence or presence of different concentrations of compounds 1, 4–5, 7–15, 21–22, 26 (concentration between 10 µM to 100 µM) or Novobiocin (concentration between 50 µM to 500 µM). Stock solutions of compounds (100 mM in DMSO) were diluted just before addition to the sterile culture medium and the final concentration of DMSO was 0.15% (v/v).
(§2) The number of viable cells was determined by using a […] (MTT, Sigma-Aldrich) conversion assay, according to the method described by Terracciano et al. 2016[27],[28]. After the indicated treatment, the cells were incubated for additional 3 h at 37 °C, with 25 µL of MTT (5 mg/mL in PBS). The formazan crystals thus formed were dissolved in 100 μl of buffer containing 50% (v/v) N,N-dimethylformamide, 20% SDS (pH 4.5). The absorbance was read at 570 nm using an Absorbance Microplate Reader (Titertek multiskan MCC7340, LabSystems, Vienna, VA, USA) equipped with a 620 nm filter. The cell population growth inhibition was also tested by cytometric counting (trypan blu exclusion). IC50 values were calculated from cell viability dose−response curves and defined as the concentration resulting in 50% inhibition of cell survival, compared to control cells treated with DMSO (see Supplementary Material Tables S2 and S3).

[2] = test system: Jurkat (human leukemic T lymphocyte); assay: Anti-proliferation MTT assay, Jurkat cells; assay type: cell-based; conditions: for IC50: Homo sapiens
Protocol: as §1, §2

[3] = test system: PHA-stimulated human peripheral blood mononuclear cells (PBMC); assay: Cytotoxicity on PHA-stimulated PBMC by trypan blue count; assay type: cell-based; conditions: 25 µM, DMSO control about 5 ± 0.9%
Protocol: Human peripheral blood mononuclear cells (PBMC), induced to proliferate by phytohemagglutinin (PHA) (10 µg/ml), were used to evaluate cytotoxic effects by trypan blue count of compound 7 and 10. Human peripheral blood mononuclear cells (PBMC) were isolated from buffy coats of healthy donors (kindly provided by the Blood Center of the Hospital of Battipaglia, Salerno, Italy) by using standard Ficoll−Hypaque gradients.

Jurkat cells = assay: Cell cycle distribution / hypodiploid cells by PI flow cytometry; assay type: cell-based, human; conditions: for hypodiploid cells (subG0/G1 DNA content): 100 µM; for hypodiploid cells: 200 µM
Protocol: Cell DNA content was measured by propidium iodide (PI) incorporation into permeabilized cells, as described by Nicoletti et al. Briefly, the Jurkat cells were treated for 24 h or 48 h with compounds used at the different concentrations. In particular, the compounds 7 or 10 were used at 25 or 50 µM, novobiocin was used at 50, 100 or 200 µM. The treated cells were harvested and incubated with a PI solution (0.1% sodium citrate, 0.1% Triton X-100 and 50 μg/ml of prodium iodide, Sigma-Aldrich, 10 μg/ml Rnase A) for 30 min at room temperature.
The cells were analyzed using FACScalibur flow cytometry (Becton Dickinson, San Josè, CA. The distribution of cells in cell cycle phases was determined using ModFit LT analysis software (Becton Dickinson). The percentage of apoptotic cells is represented as the percentage of hypodiploid cells accumulated at the sub G0/G1 phase of the cell cycle and was quantified using the CellQuest software (Becton Dickinson). Results were expressed as a mean ± SD of three experiments performed in triplicate.

[4] = test system: Hsp90-dependent client proteins Raf-1, p-Akt, p-Erk and p53; Hsc70, Hsp90, Hsp70 in Jurkat cells; assay: Western blot of Hsp90 client proteins and heat shock proteins; assay type: cell-based, human; conditions: 24 h; for degradation of Hsp90-dependent client proteins Raf-1, p-Akt, p-Erk and p53 / reduction of Hsc70: 25 and 50 µM, western blot densitometry
Protocol: Following the treatment, the cells were trypsinized and homogenized on ice in RIPA lysis buffer (50 mM Hepes, 10 mM EDTA, 150 mM NaCl, 1% NP-40, 0.5% sodium deoxycholate, 0.1% SDS, pH 7.4), supplemented with protease inhibitors cocktail (Sigma-Aldrich). After centrifugation at 4 °C to removed cell debris, an equal protein amount (40 µg) was separated by SDS-PAGE under denatured reducing conditions and was then transferred to nitrocellulose membranes. The blots were blocked with 3% BSA and were incubated at 4 °C overnight with primary antibodies: anti-Hsp 70; anti-Hsp 90α/ß, anti-Raf1, anti-pAkt, anti Erk, anti pErk, anti-p53, anti Hsc70, anti GRP94, anti cyclin A antibodies (Santa Cruz Biotechnology, Inc., Delaware, CA, USA), anti-actin antibody (Sigma-Aldrich) anti CDK2, anti Cyclin D1 and anti CDK4 antibodies (Cell Signaling Technology, Leiden, Netherlands). Appropriate peroxidase-conjugate secondary antibodies were used to detect primary antibodies, and enzymatic signals were visualized by chemiluminescence reagent Pierce ECL (Thermo Scientific, Rockford, IL, USA). Quantitative densitometry analyses were performed using a ImageQuant LAS 4000 system (GE Healthcare Life Sciences,NY, USA).

[5] = U-937, 24 h, read-out: IC50 (µM) 24h
[6] = U-937, 48 h, read-out: IC50 (µM) 48h

Row | Kd (recombinant human Hsp90α) [nM] | IC50 [1, 5] [µM] | IC50 [1, 6] [µM] | IC50 ([2]; 24 h, read-out: IC50 (µM) 24h) [µM] | IC50 ([2]; 48 h, read-out: IC50 (µM) 48h) [µM] | SMILES | further results
1 | 20.8 ± 8.7 | 52 | 50 | 26.1 | 23.5 | O=C(CCCCCn1c(=O)[nH]c2ccccc2c1=O)Nc1ccc(Br)cc1F [Compound 10] | non-viable cells percentage ([3]; 24 h): about 7 ± 1.3%; non-viable cells percentage ([3]; 48 h): ~9 ± 1.8%; hypodiploid cells (subG0/G1 DNA content) (Jurkat cells; 48 h): 10%; cell cycle phase in which cells are arrested (Jurkat cells; after 24 h, retained after 48 h): S phase; degradation of Hsp90-dependent client proteins Raf-1, p-Akt, p-Erk and p53 [4]: 50–60%; reduction of Hsc70 [4]: 15–20%
2 | 13.2 ± 2.3 |  |  |  |  | COc1cc(/C=N/NC(=O)NC(=O)c2ccccc2Cl)ccc1O [Compound 21] | IC50 (µM) 24h [1]: not active; IC50 (µM) 48h [1]: not active; IC50 (µM) 24h ([2]; 24 h): not active; IC50 (µM) 48h ([2]; 48 h): not active
3 | 4.1 ± 2.6 |  |  |  |  | CN(CCc1ccncc1)C(=O)c1ccc(N2C(=O)CCS2(=O)=O)cc1 [Compound 22] | IC50 (µM) 24h [1]: not active; IC50 (µM) 48h [1]: not active; IC50 (µM) 24h ([2]; 24 h): not active; IC50 (µM) 48h ([2]; 48 h): not active
4 | 5.2 ± 3.8 | 51.2 | 51 | 25.1 | 22 | COc1ccc(NCC(=O)Nc2ncc(Cc3ccc(Cl)c(Cl)c3)s2)cc1 [Compound 7] | non-viable cells percentage ([3]; 24 h): about 6 ± 1.8%; non-viable cells percentage ([3]; 48 h): ~8 ± 1.5%; hypodiploid cells (subG0/G1 DNA content) (Jurkat cells; 48 h): 10%; degradation of Hsp90-dependent client proteins Raf-1, p-Akt, p-Erk and p53 [4]: 50–60%; reduction of Hsc70 [4]: 15–20%
5 | 95.1 ± 5.7 | > 100 | > 100 | > 100 | > 100 | O=C(CCCCCn1c(=O)[nH]c2ccccc2c1=O)NCCN1CCOCC1 [Compound 12] | 
6 | 2.4 ± 0.6 |  |  |  |  | O=C(CNc1ccc(F)cc1)Nc1ncc(Cc2ccccc2F)s1 [Compound 8] | IC50 (µM) 24h [1]: not active; IC50 (µM) 48h [1]: not active; IC50 (µM) 24h ([2]; 24 h): not active; IC50 (µM) 48h ([2]; 48 h): not active
7 | 3.2 ± 1.1 | > 100 | > 100 | > 100 | > 100 | O=C1c2ccccc2C(=O)N1CCSc1ncnc2scc(-c3ccc(Cl)cc3)c12 [Compound 4] | 
8 | 300 ± 19.3 | 98.3 | 97 | 56.8 | 54 | COC(=O)c1ccc(NC(=O)CCCCCn2c(=O)[nH]c3ccccc3c2=O)cc1 [Compound 13] | 
9 | 14.7 ± 9.4 | 91.2 | 91.2 | 100 | 98.3 | Cc1cc(C)c2c(C)cc3nnc(SCCCN4C(=O)c5ccccc5C4=O)n3c2c1 [Compound 5] | 
10 | 25.7 ± 8.4 | > 100 | > 100 | > 100 | > 100 | O=C(c1ccc2c(c1)OCO2)N1CCC(c2nc3ccccc3[nH]2)CC1 [Compound 26] | 
11 | 260 ± 8.4 | > 100 | > 100 | > 100 | > 100 | NC(=O)c1ccc(NC(=O)CCCCCn2c(=O)[nH]c3ccccc3c2=O)cc1 [Compound 14] | 
12 | 4.8 ± 2.9 |  |  |  |  | O=C1CCS(=O)(=O)N1c1ccc(S(=O)(=O)NCc2cccc3c2OCO3)cc1 [Compound 15] | IC50 (µM) 24h [1]: not active; IC50 (µM) 48h [1]: not active; IC50 (µM) 24h ([2]; 24 h): not active; IC50 (µM) 48h ([2]; 48 h): not active
13 | 1.5 ± 0.5 | > 100 | > 100 | > 100 | > 100 | NC(=O)c1ccccc1NC(=O)CCCCCN1C(=O)c2ccccc2C1=O [Compound 1] | 
14 |  |  |  |  |  | C=CCNC1=C2C[C@@H](C)C[C@H](OC)[C@H](O)[C@@H](C)/C=C(\C)[C@H](OC(N)=O)[C@@H](OC)/C=C\C=C(/C)C(=O)NC(=CC1=O)C2=O [Compound 17-AAG, 17-(Allylamino)-17-demethoxygeldanamycin, reference compound] | effect on Hsp90 and Hsp70 protein levels (heat shock response) ([4]; 17-AAG 2 µM, compounds 25 and 50 µM): significant up-regulation of Hsp90 and Hsp70 expression levels
15 | 14.2 ± 4.9 |  |  |  |  | COC(=O)c1ccc(Oc2c[nH]nc2-c2ccc(OC)cc2O)cc1 [Compound 20] | 
16 | 79.3 ± 7.2 | 90.1 | 90.3 | 48.2 | 42.5 | O=C(CCCCCn1c(=O)[nH]c2ccccc2c1=O)CCCn1ccnc1 [Compound 11] | 
17 |  | 232 | 190 | 171 | 150 | CO[C@@H]1[C@@H](OC(N)=O)[C@@H](O)[C@H](Oc2ccc3c(O)c(NC(=O)c4ccc(O)c(CC=C(C)C)c4)c(=O)oc3c2C)OC1(C)C [Novobiocin, reference compound] | hypodiploid cells (Jurkat cells; 24 h): 14%; hypodiploid cells (Jurkat cells; 48 h): 30%; effect on cell cycle progression (Jurkat cells; 50 and 100 µM, 24 or 48 h): did not affect cell cycle progression
18 | 20.9 ± 9.5 | 97.3 | 95.3 | 90.2 | 85.5 | COc1ccc(NCC(=O)Nc2ncc(Cc3cccc4ccccc34)s2)cc1 [Compound 9] | 
